Tests used:
[1] = acidic pH near 4.5
From the text: A Buffer may be used to control the pH of the nasal spray solution at, or near 4.5. […] Also, the local pH value inside the nasal cavity directly influences the rate and extent of drug absorption. […] Additionally, maintaining pH at or above 4.0 helps to reduce local nasal tract irritation. The buffer is optional.

[2] = Open-label absolute bioavailability and pharmacokinetic study of intranasal ketamine in healthy volunteers; format: in vivo, human; details: hydro-alcoholic composition, minimum-maximum
Description: This was an open-label study in 25 healthy volunteers. Subjects received single doses of ketamine by intravenous (IV) injection (20 mg), intramuscular (IM) injection (20 mg), or intranasal (IN) administration (20 mg, 40 mg and 80 mg).
Blood samples for the measurement of plasma concentrations of (R)- and (S)-ketamine and (R)- and (S)-norketamine were collected pre-dose and at 0.033, 0.083, 0.167, 0.25, 0.333, 0.5, 0.75, 1, 1.25, 2, 2.5, 3, 4, 6, 8, 12, 16, and 24 hours post-dose for each study period.
All estimates for the parent and metabolite were consistent within each formulation or dose for the racemate, (R)-, and (S)-enantiomers. After IN administration, the estimates were slightly higher for the metabolite than the parent.

| SMILES | stability of solutions [1] | AUC(0-1 hr) ([2]; dose 10 mg) | AUC(0-4 hr) ([2]; dose 10 mg) | AUC(0-1 hr) ([2]; dose 20 mg) | AUC(0-4 hr) ([2]; dose 20 mg) | Tmax ([2]; dose 10 mg) [min] | Tmax ([2]; dose 20 mg) [min] | AUC(0-1 hr) ([2]; dose 40 mg) | AUC(0-4 hr) ([2]; dose 40 mg) | Tmax ([2]; dose 40 mg) [min] |
| --- | --- | --- | --- | --- | --- | --- | --- | --- | --- | --- |
| CNC1(c2ccccc2Cl)CCCCC1=O.Cl (centres unmarked) [Es/ketamine HCl] | better stability |  |  |  |  |  |  |  |  |  |
| CN[C@@]1(c2ccccc2Cl)CCCCC1=O [(R)-Ketamine] |  | 15.9-70.8 hr′ ng/mL | 33.6-118 hr′ ng/mL | 40.5-129 hr′ ng/mL | 93.0-251 hr′ ng/mL |  |  |  |  |  |
| CN[C@]1(c2ccccc2Cl)CCCCC1=O [(S)-Ketamine] |  | 12.8-55.8 hr′ ng/mL | 26.4-90.4 hr′ ng/mL | 30.9-96.7 hr′ ng/mL | 66.9-181 hr′ ng/mL | 5 to 20 | 10 to 30 |  |  |  |
| CNC1(c2ccccc2Cl)CCCCC1=O (racemic) [(RS)-Ketamine, 2-(2-chlorophenyl)-2-(methylamino)-cyclohexanone] |  |  |  | 28.7-127 hr′ ng/mL | 60.0-209 hr′ ng/mL |  | 4.98 to 30 | 71.4-225 hr′ ng/mL | 160-433 hr′ ng/mL | 10 to 30 |

Source: patent US20260130845A1, “KETAMINE NASAL SPRAY FORMULATION AND METHODS OF USE” (INESKET LLC, priority 2024, published 2026)
